Values joined by “and” are separate entries in the source; they are usually repeats but may differ in a detail not shown here. Equal entries are not always repeated. Toxic doses and inconclusive results are not listed.
Test system: P388 leukemia ip, CD2F1 mice, survival T/C
Test: NCI In Vivo Anticancer Drug Screen. Data for tumor model P388 Leukemia (intraperitoneal) in CD2F1 (CDF1) mice
Conditions: endpoint: median survival time, higher = longer survival
In short: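 Mice carrying the transplanted tumor received test compound or vehicle. Survival was recorded in each group, and the value is the treated-group measurement divided by that of the vehicle-treated control group.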

[1] = dose: 100.0 mg/kg/injection, schedule: Q01DX001 (ip), vehicle: Klucel (hydroxypropylcellulose) (HPC)
[2] = dose: 200.0 mg/kg/injection, schedule: Q01DX001 (ip), vehicle: Klucel (hydroxypropylcellulose) (HPC)
[3] = dose: 50.0 mg/kg/injection, schedule: Q01DX009 (ip), vehicle: Klucel (hydroxypropylcellulose) (HPC)
[4] = dose: 100.0 mg/kg/injection, schedule: Q01DX009 (ip), vehicle: Klucel (hydroxypropylcellulose) (HPC)
[5] = dose: 200.0 mg/kg/injection, schedule: Q01DX009 (ip), vehicle: Klucel (hydroxypropylcellulose) (HPC)
[6] = dose: 50.0 mg/kg/injection, schedule: Q01DX009 (ip), vehicle: saline with Tween-80
[7] = dose: 100.0 mg/kg/injection, schedule: Q01DX009 (ip), vehicle: saline with Tween-80
[8] = dose: 200.0 mg/kg/injection, schedule: Q01DX009 (ip), vehicle: saline with Tween-80
[9] = dose: 100.0 mg/kg/injection, schedule: Q04DX002 (ip), vehicle: saline with Tween-80
[10] = dose: 200.0 mg/kg/injection, schedule: Q04DX002 (ip), vehicle: saline with Tween-80
[11] = dose: 400.0 mg/kg/injection, schedule: Q01DX009 (ip), vehicle: saline with Tween-80
[12] = dose: 50.0 mg/kg/injection, schedule: Q01DX005 (ip), vehicle: saline with Tween-80
[13] = dose: 100.0 mg/kg/injection, schedule: Q01DX005 (ip), vehicle: saline with Tween-80
[14] = dose: 200.0 mg/kg/injection, schedule: Q01DX005 (ip), vehicle: saline with Tween-80
[15] = dose: 60.0 mg/kg/injection, schedule: Q01DX005 (ip), vehicle: saline with Tween-80
[16] = dose: 120.0 mg/kg/injection, schedule: Q01DX005 (ip), vehicle: saline with Tween-80

COc1cc(CO)c(I)c(OC)c1OC
T/C [1]: 99 % of control | T/C [2]: 97 % of control

NC(COC(=O)NCCCl)C(=O)O (stereo not given)
T/C [3]: 88 % of control | T/C [4]: 93 % of control | T/C [5]: 111 % of control

CC1=C(c2ccccc2)C2(c3ccccc3)OC(c3ccc([N+](=O)[O-])cc3)=NOC2(C)C1 (stereo not given)
T/C [6]: 93 % of control | T/C [7]: 93 % of control | T/C [8]: 96 % of control

O=c1[nH]c(=O)c2ncsc2[nH]1
T/C (dose: 25.0 mg/kg/injection, schedule: Q01DX001 (ip), vehicle: saline with Tween-80): 100 % of control | T/C (dose: 50.0 mg/kg/injection, schedule: Q01DX001 (ip), vehicle: saline with Tween-80): 100 % of control and 104 % of control | T/C (dose: 100.0 mg/kg/injection, schedule: Q01DX001 (ip), vehicle: saline with Tween-80): 100 % of control and 113 % of control | T/C (dose: 200.0 mg/kg/injection, schedule: Q01DX001 (ip), vehicle: saline with Tween-80): 118 % of control

CC(C)CC(=O)NC(C(=O)NC(C(=O)NC(CC(C)C)C(O)CC(=O)NC(C)C(=O)NC(CC(C)C)C(O)CC(=O)O)C(C)C)C(C)C (stereo not given)
T/C (dose: 6.25 mg/kg/injection, schedule: Q01DX009 (ip), vehicle: Klucel (hydroxypropylcellulose) (HPC)): 102 % of control | T/C [3]: 98 % of control and 122 % of control and 87 % of control | T/C [4]: 90 % of control and 95 % of control

O=S1(=O)N=C(Sc2nc3ccccc3o2)c2ccccc21
T/C [9]: 102 % of control | T/C [10]: 107 % of control | T/C (dose: 400.0 mg/kg/injection, schedule: Q04DX002 (ip), vehicle: saline with Tween-80): 115 % of control

C[n+]1c(/C=N/NC(N)=S)ccc2ccccc21
T/C [7]: 118 % of control

COc1ccc(C(=O)/C=C/c2ccc(OC)c(OC)c2OC)c(OC(C)=O)c1
T/C (dose: 100.0 mg/kg/injection, schedule: Q04DX003 (ip), vehicle: Klucel (hydroxypropylcellulose) (HPC)): 98 % of control | T/C (dose: 200.0 mg/kg/injection, schedule: Q04DX003 (ip), vehicle: Klucel (hydroxypropylcellulose) (HPC)): 91 % of control | T/C (dose: 400.0 mg/kg/injection, schedule: Q04DX003 (ip), vehicle: Klucel (hydroxypropylcellulose) (HPC)): 93 % of control

CC1(C)/C(=C/c2ccccc2)C(=O)c2ccccc21
T/C [7]: 90 % of control | T/C [8]: 100 % of control | T/C [11]: 100 % of control

COc1c(OCC(O)CN2CCCCC2)c2c(C)coc2c2ccoc12 (stereo not given)
T/C (dose: 50.0 mg/kg/injection, schedule: Q01DX005 (ip), vehicle: Klucel (hydroxypropylcellulose) (HPC)): 100 % of control | T/C (dose: 100.0 mg/kg/injection, schedule: Q01DX005 (ip), vehicle: Klucel (hydroxypropylcellulose) (HPC)): 96 % of control

CCOC(=O)CN1CCC(C(O)c2cc3ccccc3[nH]2)CC1 (stereo not given)
T/C (dose: 100.0 mg/kg/injection, schedule: Q01DX001 (ip), vehicle: saline): 106 % of control | T/C (dose: 200.0 mg/kg/injection, schedule: Q01DX001 (ip), vehicle: saline): 110 % of control | T/C (dose: 400.0 mg/kg/injection, schedule: Q01DX001 (ip), vehicle: saline): 109 % of control

COC(=O)/C=C/C=C(c1ccccc1)c1ccccc1
T/C [6]: 99 % of control | T/C [7]: 104 % of control | T/C [8]: 106 % of control | T/C [11]: 113 % of control

COC(=O)C1=C/CCCN(C=O)/C=C\1C(=O)OC
T/C (dose: 100.0 mg/kg/injection, schedule: Q04DX003 (ip), vehicle: alcohol): 103 % of control | T/C (dose: 200.0 mg/kg/injection, schedule: Q04DX003 (ip), vehicle: alcohol): 103 % of control | T/C (dose: 400.0 mg/kg/injection, schedule: Q04DX003 (ip), vehicle: alcohol): 103 % of control

CCOc1cccc(/C=N\Nc2nc(=O)cc(C(=O)OC)s2)c1O
T/C [12]: 97 % of control | T/C [13]: 104 % of control | T/C [14]: 107 % of control

COc1cc(CO)c(Br)c(OC)c1OC
T/C [1]: 100 % of control | T/C [2]: 100 % of control | T/C (dose: 400.0 mg/kg/injection, schedule: Q01DX001 (ip), vehicle: Klucel (hydroxypropylcellulose) (HPC)): 106 % of control

CC1=CC(Cc2ccccc2)N(C)CC1C (stereo not given)
T/C [15]: 97 % of control | T/C [16]: 91 % of control

N=C(N)c1ccc(NN=Nc2cccc3c2Oc2ccccc2O3)cc1
T/C [12]: 106 % of control | T/C [13]: 103 % of control | T/C [14]: 95 % of control

CCC1(CC)C(=O)NC(=O)NC1(OC)OC
T/C (dose: 50.0 mg/kg/injection, schedule: Q01DX005 (ip), vehicle: saline): 98 % of control | T/C (dose: 100.0 mg/kg/injection, schedule: Q01DX005 (ip), vehicle: saline): 106 % of control | T/C (dose: 200.0 mg/kg/injection, schedule: Q01DX005 (ip), vehicle: saline): 100 % of control

CCCCCCCCCCC(=O)C(=O)c1ccc(O)cc1O
T/C [3]: 111 % of control | T/C [4]: 112 % of control | T/C [5]: 113 % of control

COC(=O)[C@@H]1[C@H]2CC(C)(C)C[C@H]2C2=CCC[C@@H]21
T/C (dose: 18.5 mg/kg/injection, schedule: Q01DX005 (ip), vehicle: suspension in saline): 96 % of control | T/C (dose: 37.0 mg/kg/injection, schedule: Q01DX005 (ip), vehicle: suspension in saline): 98 % of control | T/C (dose: 74.0 mg/kg/injection, schedule: Q01DX005 (ip), vehicle: suspension in saline): 98 % of control

CCOc1ccc(NC(=S)NC2OC(COC(C)=O)C(OC(C)=O)C(OC(C)=O)C2OC(C)=O)cc1 (stereo not given)
T/C [12]: 101 % of control | T/C [13]: 91 % of control | T/C [14]: 92 % of control

NC(=O)C1OC(n2cnc3c(N)ncnc32)C(O)C1O (stereo not given)
T/C (dose: 1.56 mg/kg/injection, schedule: Q01DX005 (ip), vehicle: saline with Tween-80): 100 % of control and 104 % of control | T/C (dose: 3.13 mg/kg/injection, schedule: Q01DX005 (ip), vehicle: saline with Tween-80): 105 % of control and 114 % of control | T/C (dose: 6.25 mg/kg/injection, schedule: Q01DX005 (ip), vehicle: saline with Tween-80): 109 % of control and 115 % of control and 121 % of control

CCCCCCCC/C=C\CCCCCCCCOC(N)=O
T/C (dose: 25.0 mg/kg/injection, schedule: Q04DX003 (ip), vehicle: other): 100 % of control | T/C (dose: 50.0 mg/kg/injection, schedule: Q04DX003 (ip), vehicle: other): 104 % of control | T/C (dose: 100.0 mg/kg/injection, schedule: Q04DX003 (ip), vehicle: other): 104 % of control

O=[N+]([O-])[O][Sn]([O][Sn]([O][N+](=O)[O-])([c]1ccccc1)[c]1ccccc1)([c]1ccccc1)[c]1ccccc1
T/C (dose: 1.56 mg/kg/injection, schedule: Q01DX005 (ip), vehicle: Klucel (hydroxypropylcellulose) (HPC)): 102 % of control | T/C (dose: 3.12 mg/kg/injection, schedule: Q01DX005 (ip), vehicle: Klucel (hydroxypropylcellulose) (HPC)): 99 % of control | T/C (dose: 6.25 mg/kg/injection, schedule: Q01DX005 (ip), vehicle: Klucel (hydroxypropylcellulose) (HPC)): 97 % of control | T/C (dose: 12.5 mg/kg/injection, schedule: Q01DX005 (ip), vehicle: Klucel (hydroxypropylcellulose) (HPC)): 122 % of control | T/C (dose: 12.5 mg/kg/injection, schedule: Q01DX005 (ip), vehicle: saline): 96 % of control

O=C(/C=C/c1c[nH]c2ccccc12)c1ccccc1[N+](=O)[O-]
T/C [15]: 94 % of control | T/C [16]: 90 % of control

COc1cc2c(c(OC)c1OC)-c1ccc(SC)c(=O)cc1[C@@H](NC(=O)CCl)CC2
T/C (dose: 0.03 mg/kg/injection, schedule: Q01DX009 (ip), vehicle: water): 124 % of control | T/C (dose: 0.4 mg/kg/injection, schedule: Q01DX009 (ip), vehicle: water): 155 % of control

COc1ccc(C2CC(=O)N(c3ccncc3)C(=O)C2)cc1
T/C (dose: 50.0 mg/kg/injection, schedule: Q04DX002 (ip), vehicle: saline with Tween-80): 115 % of control | T/C [9]: 95 % of control | T/C [10]: 90 % of control

COC(=O)c1c(C(=O)OC)c2c(C)nn3ccc1n23
T/C (dose: 25.0 mg/kg/injection, schedule: Q01DX005 (ip), vehicle: saline with Tween-80): 96 % of control | T/C [12]: 96 % of control | T/C [13]: 98 % of control | T/C [14]: 93 % of control

C[C@H](N)C(O)/C=C/c1ccccc1 (stereo not given in full)
T/C (dose: 10.0 mg/kg/injection, schedule: Q01DX005 (ip), vehicle: saline): 103 % of control | T/C (dose: 20.0 mg/kg/injection, schedule: Q01DX005 (ip), vehicle: saline): 93 % of control | T/C (dose: 40.0 mg/kg/injection, schedule: Q01DX005 (ip), vehicle: saline): 97 % of control

Source: PubChem BioAssay AID330 (DTP/NCI, 2004)
